Series [1] relates to tomato late blight pathogen (Phylophihora infeslans). Put plainly: whole plant or invertebrate. In kind it is in vivo. The settings on record: Phytophthora infestans, 96 h, read-out: Control value.
For series [2], the system named is grape downy mildew pathogen (Plasmopara viticola). Put plainly: Grape downy mildew control test (Test Example 2). The settings on record: 100 ppm by mass, sprayed on grape leaf disc (variety Chardonnay) before inoculation, blotch area ratio seven days after inoculation, 20° C.; for pest or weed control at 100 ppm: Plasmopara viticola, foliar, 168 h. The format is in vivo. As to the method:
5 parts by mass of the compound according to the present invention, 93.5 parts by mass of dimethylformamide, and 1.5 parts by mass of polyoxyethylene alkylaryl ether were mixed and dissolved to prepare an emulsion (I) containing 5% by mass of an active ingredient.
The control value was calculated according to the following formula.
Control value (%)=100−{blotch area ratio in treated area/blotch area ratio in untreated area}×100
Water was added to the emulsion (I) such that the concentration of the heterocyclic compound became 100 ppm by mass, and then the heterocyclic compound was dissolved therein to obtain a pharmaceutical solution. Then, the pharmaceutical solution was sprayed on a leaf disc of grape (variety “Chardonnay”) placed on agar in a 6-well plate. After air-drying, the leaf disc on which the pharmaceutical solution was sprayed was inoculated with zoosporangia of grape downy mildew pathogen (Plasmopara viticola) in a suspension by spraying the suspension thereon (treated area). As a control, a leaf disc on which no pharmaceutical solution was sprayed was inoculated in the same way as mentioned above (untreated area). The resultant leaf discs were left in a moist chamber at 20° C. Seven days after inoculation, the grape leaf discs were visually observed to measure the blotch area ratio to calculate the control value.

As a reminder, the melting point is the temperature, or range, at which the solid turns liquid.

In the case of `c1ccc(C(Nc2ccc3ncsc3c2)c2nnco2)cc1` (stereo not drawn) [b-5], in series [1], the pest or weed control at 125 ppm was not below 75%. For `COCCO/N=C/c1cc(C(Oc2ccc3nc(C)sc3c2)c2nnco2)ncc1F` (stereo not drawn) [b-86], the pest or weed control at 100 ppm in series [2] was not below 75%. Besides, the pest or weed control at 125 ppm in series [1] was not below 75%. `C(=N\OCc1nnco1)/c1ccnc(C(Oc2ccc3ncsc3c2)c2nnco2)c1` (stereo not drawn) [b-67]: the pest or weed control at 125 ppm in series [1] is not below 75%. In turn, `CO/N=C/c1ccnc(C(Oc2ccc3nc(C)sc3c2)c2nnco2)c1` (stereo not drawn) [b-21] returned a melting point of 107 to 109 °C. Further, the pest or weed control at 100 ppm in series [2] was not below 75%. In series [1], the pest or weed control at 125 ppm was not below 75%. Regarding `Cc1nc2ccc(OC(c3cc(/C=N/OCC4CC4)c(F)cn3)c3nnco3)cc2s1` (stereo not drawn) [b-49], the pest or weed control at 100 ppm in series [2] was not below 75%. The pest or weed control at 125 ppm in series [1] is not below 75%. As to `Fc1ccc(C(Oc2ccc3ncsc3c2)c2nnco2)nc1` (stereo not drawn) [a-8, 2-((benzo[d]thiazol-6-yloxy)(5-fluoropyridin-2-yl)methyl)-1,3,4-oxadiazole], in series [2], the pest or weed control at 100 ppm was not below 75%. Also, the pest or weed control at 125 ppm in series [1] is not below 75%.

`CO/N=C/c1cc(C(Oc2ccc3nc(I)sc3c2)c2nnco2)ncc1F` (stereo not drawn) [b-53] returned a melting point of 166 to 168 °C. Besides, the pest or weed control at 100 ppm in series [2] is not below 75%. Turning to `CCc1cc(OC(c2cc(/C=N/OCCOC)c(F)cn2)c2nnco2)cc2sc(C)nc12` (stereo not drawn) [b-87], the melting point was 138 to 139 °C. Further, in series [2], the pest or weed control at 100 ppm is not below 75%. For the same molecule, the pest or weed control at 125 ppm in series [1] was not below 75%. `CO/N=C/c1cc(C(Oc2ccc3nc(C)sc3c2)c2nnco2)ncc1F` (stereo not drawn) [b-27] returned a melting point of 129 to 131 °C. Also, in series [2], the pest or weed control at 100 ppm was not below 75%. Further, the pest or weed control at 125 ppm in series [1] is not below 75%. In turn, `CCO/N=C/c1ccnc(C(Oc2ccc3ncsc3c2)c2nnco2)c1` (stereo not drawn) [b-17] yielded a melting point of 113 to 114 °C. The pest or weed control at 100 ppm in series [2] was not below 75%. Besides, the pest or weed control at 125 ppm in series [1] was not below 75%.

Regarding `CO/N=C/c1cc(C(Oc2ccc3nc(Br)sc3c2)c2nnco2)ncc1F` (stereo not drawn) [b-43], the melting point fell in the range of 151 to 154 °C. Further, the pest or weed control at 100 ppm in series [2] was not below 75%.

Molecule `CO/N=C/c1cc(C(Oc2ccc3ncsc3c2C)c2nnco2)ncc1F` (stereo not drawn) [b-77] had a melting point of 108 to 110 °C. Besides, the pest or weed control at 100 ppm in series [2] was not below 75%. For `COCOCc1ccnc(C(Oc2ccc3nc(C)sc3c2)c2nnco2)c1` (stereo not drawn) [a-175], the Control value entry in series [2] was “a-175%”. The same measure, in the same setting: the entry for `CCOCc1ccnc(C(Oc2ccc3ncsc3c2)c2nnco2)c1` (stereo not drawn) [a-75] is “a-75%”. For the molecule `CCCO/N=C/c1ccnc(C(Oc2ccc3ncsc3c2)c2nnco2)c1` (stereo not drawn) [b-69], in series [2], the pest or weed control at 100 ppm was not below 75%. In series [1], the pest or weed control at 125 ppm was not below 75%. For `CO/N=C/c1ccnc(C(Oc2cc(Br)c3ncsc3c2)c2nnco2)c1` (stereo not drawn) [b-13], in series [2], the pest or weed control at 100 ppm is not below 75%. Also, the pest or weed control at 125 ppm in series [1] is not below 75%.

Consider `CC#Cc1ccnc(C(Oc2ccc3ncsc3c2)c2nnco2)c1` (stereo not drawn) [a-45, 2-((benzo[d]thiazol-6-yloxy)(4-(prop-1-yn-1-yl)pyridin-2-yl)methyl)-1,3,4-oxadiazole], for which, in series [2], the pest or weed control at 100 ppm is not below 75%. Moreover, the pest or weed control at 125 ppm in series [1] is not below 75%. As to `CCc1cc(OC(c2cc(/C=N/OC)c(Br)cn2)c2nnco2)cc2sc(C)nc12` (stereo not drawn) [b-52], the melting point fell in the range of 160 to 161 °C. Further, the pest or weed control at 100 ppm in series [2] is not below 75%.

For `CO/N=C/c1ccnc(C(Oc2ccc3nnsc3c2)c2nnco2)c1` (stereo not drawn) [b-16], the melting point was 172 to 173 °C. Further, the pest or weed control at 100 ppm in series [2] was not below 75%. Take `CO/N=C/c1ccnc(C(Oc2ccc3ncsc3c2)c2nnco2)c1` (stereo not drawn) [b-9]: the pest or weed control at 100 ppm in series [2] was not below 75%. For the same molecule, the pest or weed control at 125 ppm in series [1] was not below 75%. Take `Cn1cnc2c(F)cc(OC(c3ccc(F)cn3)c3nnco3)cc21` (stereo not drawn) [b-8]: in series [1], the pest or weed control at 125 ppm was not below 75%. Consider `CCc1cc(OC(c2cc(/C=N/OC)ccn2)c2nnco2)cc2scnc12` (stereo not drawn) [b-14], for which, in series [2], the pest or weed control at 100 ppm is not below 75%. In addition, the pest or weed control at 125 ppm in series [1] was not below 75%. Consider `CO/N=C/c1cc(C(Oc2ccc3ncsc3c2N)c2nnco2)ncc1F` (stereo not drawn) [b-78], for which the pest or weed control at 125 ppm in series [1] is not below 75%. As to `CO/N=C/c1cc(C(Oc2ccc3ncsc3c2)c2nnco2)ncc1Cl` (stereo not drawn) [b-37], in series [2], the pest or weed control at 100 ppm was not below 75%. In addition, in series [1], the pest or weed control at 125 ppm is not below 75%. `CO/N=C/c1cc(C(Oc2ccc3nc(C(F)F)sc3c2)c2nnco2)ncc1F` (stereo not drawn) [b-72]: the melting point was 143 to 144 °C. Moreover, the pest or weed control at 100 ppm in series [2] was not below 75%. Take `CO/N=C/c1cc(C(Oc2ccc3ncsc3c2)c2nnco2)ncc1C` (stereo not drawn) [b-59]: in series [2], the pest or weed control at 100 ppm was not below 75%. For the molecule `CC(C)O/N=C/c1ccnc(C(Oc2ccc3ncsc3c2)c2nnco2)c1` (stereo not drawn) [b-18], the pest or weed control at 100 ppm in series [2] was not below 75%. Further, in series [1], the pest or weed control at 125 ppm is not below 75%. As to `CO/N=C/c1ccnc(C(Oc2ccc3ncsc3c2)c2nnco2)n1` (stereo not drawn) [b-25], the pest or weed control at 125 ppm in series [1] was not below 75%.

`Cn1cnc2ccc(OC(c3ccccc3)c3nnco3)cc21` (stereo not drawn) [b-3] displayed a melting point of 114 to 116 °C. In series [1], the pest or weed control at 125 ppm was not below 75%. As to `CCCCC(Oc1ccc2ncn(C)c2c1)c1nnco1` (stereo not drawn) [b-4], the pest or weed control at 125 ppm in series [1] was not below 75%.

`C#CCO/N=C/c1ccnc(C(Oc2ccc3ncsc3c2)c2nnco2)c1` (stereo not drawn) [b-20]: the pest or weed control at 100 ppm in series [2] was not below 75%. Besides, in series [1], the pest or weed control at 125 ppm is not below 75%.

`CO/N=C\c1cc(C(Oc2ccc3ncsc3c2)c2nnco2)ncc1F` (stereo not drawn) [b-38]: the pest or weed control at 100 ppm in series [2] is not below 75%. The pest or weed control at 125 ppm in series [1] was not below 75%. Take `Fc1ccc(C(Oc2cc(Br)c3ncsc3c2)c2nnco2)nc1` (stereo not drawn) [a-20, 2-((4-bromobenzo[d]thiazol-6-yloxy)(5-fluoropyridin-2-yl)methyl)-1,3,4-oxadiazole]: in series [2], the pest or weed control at 100 ppm was not below 75%. Moreover, the pest or weed control at 125 ppm in series [1] is not below 75%. Consider `Cn1cnc2ccc(OC(c3ccc(F)cn3)c3nnco3)cc21` (stereo not drawn) [b-6], for which the pest or weed control at 125 ppm in series [1] is not below 75%. For the molecule `c1ccc(-c2ccnc(C(Oc3ccc4nnsc4c3)c3nnco3)c2)cc1` (stereo not drawn) [b-51], in series [2], the pest or weed control at 100 ppm was not below 75%. In addition, the pest or weed control at 125 ppm in series [1] was not below 75%. In turn, `CO/N=C/c1cc(C(Oc2cc(Br)c3ncsc3c2)c2nnco2)ncc1F` (stereo not drawn) [b-56] had a melting point of 170 to 172 °C. Also, in series [1], the pest or weed control at 125 ppm is not below 75%.

Turning to `COCCO/N=C/c1cc(C(Oc2ccc3ncsc3c2)c2nnco2)ncc1F` (stereo not drawn) [b-85], the pest or weed control at 100 ppm in series [2] is not below 75%. In addition, the pest or weed control at 125 ppm in series [1] was not below 75%. In the case of `CO/N=C/c1cc(C(Oc2ccc3ncsc3c2)c2nnco2)ncc1SC` (stereo not drawn) [b-41], in series [2], the pest or weed control at 100 ppm was not below 75%. Take `CO/N=C/c1ccnc(C(Oc2ccc3nc(OC)sc3c2)c2nnco2)c1` (stereo not drawn) [b-28]: the pest or weed control at 100 ppm in series [2] is not below 75%. The molecule `CO/N=C/c1cc(C(Oc2ccc3nc(OC)sc3c2)c2nnco2)ncc1F` (stereo not drawn) [b-54] came in with a melting point of 134 to 136 °C. For the same molecule, the pest or weed control at 100 ppm in series [2] is not below 75%.

For `CNc1nc2ccc(OC(c3cc(/C=N/OC)ccn3)c3nnco3)cc2s1` (stereo not drawn) [b-36], the pest or weed control at 100 ppm in series [2] was not below 75%. The pest or weed control at 125 ppm in series [1] was not below 75%. On to `CC(C)=NOc1ccnc(C(Oc2ccc3ncsc3c2)c2nnco2)c1` (stereo not drawn) [b-33], for which the pest or weed control at 100 ppm in series [2] was not below 75%. The pest or weed control at 125 ppm in series [1] is not below 75%. `C(=NOCc1ccccc1)C(Oc1ccc2ncsc2c1)c1nnco1` (stereo not drawn) [b-81]: the pest or weed control at 100 ppm in series [2] was not below 75%. For `CCc1nc2ccc(OC(c3cc(/C=N/OC)ccn3)c3nnco3)cc2s1` (stereo not drawn) [b-29], the pest or weed control at 100 ppm in series [2] was not below 75%. The pest or weed control at 125 ppm in series [1] was not below 75%. `CO/N=C/c1cc(C(Oc2ccc3nc(C)sc3c2)c2nnco2)ncc1F` (stereo not drawn) [b-71] came in with a melting point of 167 to 168 °C. In the case of `CCCCON=CC(Oc1ccc2ncsc2c1)c1nnco1` (stereo not drawn) [b-83], in series [2], the pest or weed control at 100 ppm is not below 75%. On to `Cn1cnc2ccc(OC(c3ccc(Cl)cc3)c3nnco3)cc21` (stereo not drawn) [b-7], for which the pest or weed control at 125 ppm in series [1] is not below 75%. Same read-out and setting: the figure for `CCCCC(Oc1ccc2ncsc2c1)c1nnco1` (stereo not drawn) [a-1, 2-(1-(benzo[d]thiazol-6-yloxy)pentyl)-1,3,4-oxadiazole] is not below 75%.

Take `COCCO/N=C/c1ccnc(C(Oc2ccc3ncsc3c2)c2nnco2)c1` (stereo not drawn) [b-70]: the pest or weed control at 100 ppm in series [2] was not below 75%. Besides, the pest or weed control at 125 ppm in series [1] is not below 75%. With `CO/N=C/c1cc(C(Oc2ccc3ncsc3c2)c2nnco2)ncc1[S+](C)[O-]` (stereo not drawn) [b-61], the melting point lay within 85 to 88 °C. Further, the pest or weed control at 100 ppm in series [2] is not below 75%. In the same order, the values of `FC(F)(F)CO/N=C/c1ccnc(C(Oc2ccc3ncsc3c2)c2nnco2)c1` (stereo not drawn) [b-19] are 128 to 130 °C and not below 75%.

For the molecule `CO/N=C/c1cc(C(Oc2ccc3ncsc3c2)c2nnco2)ncc1Br` (stereo not drawn) [b-39], the pest or weed control at 100 ppm in series [2] was not below 75%. Besides, in series [1], the pest or weed control at 125 ppm was not below 75%.

For `C(=N\OCC1CC1)/c1ccnc(C(Oc2ccc3ncsc3c2)c2nnco2)c1` (stereo not drawn) [b-68], in series [2], the pest or weed control at 100 ppm was not below 75%. The pest or weed control at 125 ppm in series [1] was not below 75%.

The record behind these values is patent publication US20220142165A1 (priority 2019, published 2022).
